What was measured:
[1] = system: LPS-induced NO production in RAW 264.7 cells; assay: Nitric oxide secretion (nitrite assay) by LPS-stimulated RAW 264.7 cells; format: cell-based, murine; settings: for NO secretion by LPS-stimulated RAW 264.7 cells: graded concentrations, added 1 h before LPS, 24 hours
Procedure: RAW 264.7 cells were obtained from the American Type Culture Collection (Manassas, Va.). Cells were maintained in DMEM supplemented with 10% FBS, 100 units/ml penicillin, and 100 μg/ml streptomycin at 37° C. in a humidified incubator (5% CO2, 95% air). For stimulation experiments, cells were transferred to 24-well polystyrene culture plates (Corning Life Sciences, Corning, N.Y.) at 0.3 or 1×10^6 cells/well (depending on the experiment) in 1 ml of medium per well. After overnight incubation, the medium was removed and replaced with DMEM containing 0.25% FBS. Cells were stimulated by adding 0.1 μg/ml to 1 μg/ml Escherichia coli 0111:B4 lipopolysaccharide (LPS) in the presence or absence of graded concentrations of XJB-5-131 or XJB-5-208.
(§1) Nitrite (NO2^−) concentrations were measured in cell supernatants and blood serum as an indicator of nitric oxide (.NO) production, where .NO readily oxidize into nitrites (NO2^−) and nitrates (NO3^−). The total concentration of .NO was determined by reducing NO3^− to NO2^− using cadmium and detecting NO2^− using the Greiss reagent and potassium nitrite as a standard.
(§2) Samples (200 μL) were incubated with 30% zinc sulfate to precipitate proteins and then centrifuged (4° C., 12,000 g, 5 min). Supernatants were added to 0.6 g activated cadmium (previously washed twice with each deionized H2O, 0.1 M HCl, and 0.1 NH4OH) and allowed to shake overnight at room temperature. The supernatants were removed. Greiss reagent (100 μL) was mixed with an equal volume of supernatant. Reaction between the Greiss reagent and NO2^−) yielded an azo dye that can be detected spectrophotometrically. Absorbance was measured at 550 nm using a Packard Fusion™ microplate reader (PerkinElmer, Wellesley, Mass.).
RAW 264.7 murine macrophage-like cells were incubated in the presence or absence of graded concentrations of XJB-5-131 or XJB-5-208. Concentrations of either XJB-5-131 or XJB-5-208 were dissolved in dimethyl sulfoxide (DMSO). During these experiments, the highest concentration of DMSO remaining in the cell culture was 0.18% (v/v). […]

[2] = system: iNOS mRNA in RAW 264.7 cells; assay: iNOS mRNA expression in LPS-stimulated RAW 264.7 cells (real-time RT-PCR); format: cell-based, mouse; settings: LPS 100 ng/ml, 24 hours; for LPS-induced iNOS mRNA up-regulation: RT-PCR
Procedure: RAW 264.7 cells and liver tissue specimens were lysed with TRI-Reagent® (Molecular Research Center, Cincinnati, Ohio). Bromochloropropane (0.5 mL) was added in order to extract total RNA. After vigorous agitation and centrifugation (4° C., 12,000 g, 12 min), the aqueous phase containing RNA was collected. The RNA was precipitated with isopropanol (0.5 mL). The pellet was washed with 75% ethanol (1 mL) and centrifuged (4° C., 12,000 g, 5 min) twice, and then dissolved in RNA-free water. Total RNA was quantified using UV spectrophotometry (GeneQuant™ pro, GE Healthcare). Extracted RNAs (1 μg/reaction) were converted to single-strand cDNAs in a 20 μL volume reaction, using the Reverse Transcriptase System Kit (Promega, Madison, Wis.) as directed by the manufacturer. In a Gene Amp® PCR System 9700 (Applied Biosystems, Foster City, Calif.), the mixture was heated to 70° C. for 10 min, maintained at 42° C. for 30 min, and then heated to 95° C. for 5 min to terminate the reaction. TaqMan® Gene Expression Assays (Applied Biosystems) for 18S (endogenous control) and mouse iNOS were used. Reaction mixtures for PCR were assembled as follows: 10 μL TaqMan® Universal PCR Master Mix (Applied Biosystems), 1 μL of each assay, 5 μL cDNA template, and 3 μL of water. PCR reactions were performed in a thermocycler 7300 Real Time PCR System (Applied Biosystems) under recommended conditions (50° C. for 2 min; 95° C. for 10 min; 95° C. for 15 s; 60° C. for 1 min). The two last steps were repeated for 40 cycles. […] The ΔC^T relative quantification method was used to calculate mRNA levels for iNOS in the samples, as previously described (Scharte M, Han X, Bertges D J et al. Cytokines induce HIF-1 DNA binding and the expression of HIF-1-dependent genes in cultured rat enterocytes. Am J Physiol Gastrointest Liver Physiol 2003, 284:G373-G384). […]
RAW 264.7 cells were incubated in presence or absence of graded concentrations of XJB-5-131 or XJB-5-208. […] After 24 hours, steady-state levels of iNOS mRNA were measured using real-time quantitative RT-PCR.

[3] = system: HMGB1 secretion by RAW 264.7 cells; assay: HMGB1 secretion by LPS-stimulated RAW 264.7 cells (Western blot); format: cell-based, murine; settings: LPS 1 μg/ml, 48 or 72 h, Western blot of supernatant
Procedure: Equal volumes of cell culture supernatants were mixed with Laemmli buffer (20% glycerol, 10% beta-mercaptoethanol, 5% SDS, 0.2 M Tris.HCl, pH 6.8, and 0.4% bromophenol blue). After boiling for 10 min, the samples were subjected to 10% SDS-polyacrylamide gel electrophoresis. The resolved proteins were transferred to Hybond™-P polyvinylidene difluoride membranes (GE Healthcare, Chalfont St. Giles, UK), and blocked with bovine lacto-transfer optimizer buffer (1×PBS, 5% nonfat milk, and 0.05% Tween® 20) for 1 h. The membranes were incubated overnight at 4° C. with a 1:2000 dilution of rabbit polyclonal anti-HMGB1 antibody (generously provided by Dr. Michael T. Lotze, University of Pittsburgh) in blocking buffer. After washing three times in 1×PBST (1×PBS with 0.3% Triton X-100), immunoblots were exposed at room temperature for 1 h to a 1:20,000 dilution of horseradish peroxidase-conjugated goat anti-rabbit secondary antibody (Sigma-Aldrich, St. Louis, Mo.). After washing three times with 1×PBST, the membranes were illuminated with the ECL Plus™ substrate (GE Healthcare) and the X-ray films exposed, according to the manufacturer's instructions.
RAW 264.7 cells were cultured in the absence or presence of LPS (1 μg/ml). Some cells were co-incubated with graded concentrations of XJB-5-131. […]

[4] = system: C57B1/6J mice challenged with LPS; assay: Plasma nitrite/nitrate in LPS-challenged mice; format: in vivo; set-up: unit not given here; settings: 2 μmol/kg 60 min before i.p. LPS 15 mg/kg, blood 24 h after LPS, LPS alone 321.8±70.1, control 41.8±7.0, mean±SEM, p<0.05
Procedure: as §1, §2
All experiments using mice followed the guidelines for the use of experimental animals of the U.S. National Institutes of Health and were approved by the Institutional Animal Care and Use Committee at the University of Pittsburgh. […]

[5] = system: iNOS mRNA in hepatic tissue of LPS-challenged mice; assay: Hepatic iNOS mRNA expression in LPS-challenged mice; format: in vivo; settings: 2 μmol/kg 1 h before i.p. LPS 15 mg/kg, 24 h after LPS, RT-PCR
Procedure: RAW 264.7 cells and liver tissue specimens were lysed with TRI-Reagent® (Molecular Research Center, Cincinnati, Ohio). Bromochloropropane (0.5 mL) was added in order to extract total RNA. After vigorous agitation and centrifugation (4° C., 12,000 g, 12 min), the aqueous phase containing RNA was collected. The RNA was precipitated with isopropanol (0.5 mL). The pellet was washed with 75% ethanol (1 mL) and centrifuged (4° C., 12,000 g, 5 min) twice, and then dissolved in RNA-free water. Total RNA was quantified using UV spectrophotometry (GeneQuant™ pro, GE Healthcare). Extracted RNAs (1 μg/reaction) were converted to single-strand cDNAs in a 20 μL volume reaction, using the Reverse Transcriptase System Kit (Promega, Madison, Wis.) as directed by the manufacturer. […] The ΔC^T relative quantification method was used to calculate mRNA levels for iNOS in the samples, as previously described (Scharte M, Han X, Bertges D J et al. Cytokines induce HIF-1 DNA binding and the expression of HIF-1-dependent genes in cultured rat enterocytes. Am J Physiol Gastrointest Liver Physiol 2003, 284:G373-G384). […]
Mice were randomly pretreated with a solution containing XJB-5-131 (2 μmol/kg) or a similar volume (2 ml/kg) of vehicle, a 67:33 (v/v) mixture of DMSO and normal saline. […] Subsequently, iNOS mRNA expression was measured, using quantitative real-time RT-PCR. […]

| Molecule | IC50 ([1]; Mus musculus, RAW264.7, 24 h, RAW 264.7 cells, LPS 100 or 1000 ng/ml, NO2- plus NO3- in supernatant, approximate, read-out: IC50 for inhibition of LPS-induced NO production) | NO secretion by LPS-stimulated RAW 264.7 cells [1] | Potency in inhibiting LPS-induced iNOS up-regulation, relative to XJB-5-208 [2] | LPS-induced iNOS mRNA up-regulation [2] | LPS-induced HMGB1 secretion [3] | concentration of nitrites within blood plasma [4] | iNOS expression in liver samples [5] |
| --- | --- | --- | --- | --- | --- | --- | --- |
| CC(C)C[C@@H](/C=C/[C@H](Cc1ccccc1)C(=O)N1CCC[C@H]1C(=O)N[C@H](C(=O)N[C@@H](CCCNC(=O)OCc1ccccc1)C(=O)NC1CC(C)(C)N([O])C(C)(C)C1)C(C)C)NC(=O)OC(C)(C)C [XJB-5-131, N-Boc-Leu-[(E)-CH═CH]-^DPhe-Pro-Val-Orn(Cbz)-N-TEMPO] | ~3000 nM | significantly reduced | more potent | inhibited LPS-induced iNOS up-regulation | inhibited LPS-induced HMGB1 secretion in a concentration-dependent fashion | 179.5±34.6 | attenuated iNOS expression in liver samples |
| N-Boc-Leu-[(E)-CH═CH]-^DPhe-N-TEMPO [XJB-5-208] | – | significantly reduced | – | inhibited LPS-induced iNOS up-regulation | – | – | – |

— patent publication US8487079B2, “Use of mitochondria-targeted electron scavengers as anti-inflammatory agents” (University of Pittsburgh—Of the Commonwealth System of …, priority 2007, dated 2013)
